The target in data set [1] is α-amylase. The data set is described as follows: In vitro α-amylase inhibitory assay. Conditions: mean of three replicates ±SD. The data set is classed as biochemical. Here is the method: The reaction mixture contains 20 μL of α-amylase solution (0.5 mg mL^−1) and 200 μL of sodium phosphate buffer (pH 6.9, 0.02 M). Test samples ([…]) were added (250 μL) to the reaction mixture following which; incubation was carried out for 10 min at room temperature. This was accompanied by the addition of 200 μL of 1% starch solution, and further incubated for 10 min at 25 °C. By adding 400 μL of dinitrosalicylic acid (DNS) reagent, the reaction was terminated. Lastly, it was incubated in water (70 °C, 5 min). The absorbance was recorded using an ELISA microplate reader at 540 nm. […] All the experiments were performed in triplicates. It was the reaction mixture without the test sample that served as the control for the test.[31]
The percent inhibition was calculated as:% Inhibition = [(C − T)/C] × 100C – absorbance of control, T – absorbance of sample.

For data set [2], the target named is α-glucosidase. The data set is described as follows: In vitro α-glycosidase inhibitory assay. The data set is classed as biochemical. Conditions: mean of three replicates ±SD. Here is the method:
The reaction mixture contains 50 μL of 0.1 M phosphate buffer (pH = 6.8), 10 μL of α-glucosidase enzyme and 20 μL of test samples (10–50 μg mL^−1) were taken in a 96-well plate and incubated at 37 °C for 15 min. Furthermore, 20 μL of p-nitrophenyl D-glucopyranoside solution was added as a substrate and incubated for an additional 20 min at 37 °C. 50 μL of 0.1 M Na2CO3 is added to terminate the reaction. The liberated p-nitrophenol was measured at 405 nm with an Elisa microplate reader. […] All the experiments were performed in triplicates.[31]
The inhibition was calculated in percentage as:% Inhibition = [(C − T)/C] × 100C – absorbance of control, T – absorbance of sample.

Data set [3] has as its system Drosophila melanogaster. The data set is described as follows: In vivo antihyperglycemic test in Drosophila on high sugar diet. Conditions: for significance of antihyperglycemic activity: Drosophila on HSD, 18 μg g^−1 feed; for reduction in glucose levels, female flies / percent reduction in glucose levels, male flies: HSD with 18 μg g^−1 feed, 10 days. Here is the method: In this study, Oregon-R flies were obtained directly from the Nitte University, Drosophila Lab, Mangalore, India, and maintained on a wheat cream-agar medium with a relative humidity of 65–70%, and a light–dark cycle of twelve hours each. Separation of males and females of one-day-old flies were cultured in, food containing high sugar diet (HSD), and different groups of food containing HSD with uniform concentrations (18 μg g^−1 feed) of the compounds 5a, 5b, 5j for 10 days. Acarbose was administered as a positive control. Twenty flies were taken and they were homogenized in 0.2 mL of ice-cold phosphate buffer saline. (pH 7.4). Homogenized samples were centrifuged at 10 000g for 15 min at 4 °C. All fly homogenates were tested for glucose concentration using the manufacturer's protocol (Agape Diagnostics Ltd, India). Throughout the experiments, the control group was maintained in the same conditions as that of other groups except for HSD and compounds. All experiments were carried out in triplicates and the results were expressed in percentages respective to the control group.[32]
The results of all the experiments (n = 3) were analyzed and expressed as mean ± standard deviation (SD). The Student's t-test was performed using GraphPad Prism software (GraphPad Software Inc., CA, USA). p values ≤ 0.05 were considered as statistically significant (*p ≤ 0.05; *p ≤ 0.01; **p ≤ 0.001).

The subject of data set [4] is NIH/3T3 cells. The data set is described as follows: MTT cytotoxicity assay. Format: cell-based. Conditions: 100 μmol, 24 h incubation. Here is the method: The cytotoxic concentration of synthetic compounds (5a–5j) was evaluated by MTT assay. A standard MTT assay was performed with various concentrations of synthesized compounds against NIH/3T3 cells using a 96-well microplate reader at 570 nm. The cell lines were cultured in DMEM, supplemented with 10% FBS in flasks, and incubated at 37 °C with 5% CO2 in DMEM medium with streptomycin and penicillin (100 IU mL^−1) at the appropriate concentrations. The 96-well plates with media were incubated. After overnight incubation, each plate was discarded and fresh medium was added to each well with varying concentrations (5 μM, 10 μM, 25 μM, 50 μM, 100 μM) of test samples. Then, 200 μL of MTT (0.5 mg mL^−1) were put in each well and further incubated for four hours. Afterward, DMSO (100 μL) was transferred into each microplate well. The absorbance was measured at 570 nm to determine how much MTT was reduced to formazan in the cells.
Background: Formazan colour is commonly taken as a measure of viable cells.

As usually defined, the IC50 is the point on the concentration scale where inhibition reaches its midpoint. A higher IC50 goes with a need for much substance. In general, melting point refers to the temperature, or range, at which the solid turns liquid.

Several values for one entry are separate records, joined by “and”; a condition that tells them apart may be missing. Equal entries are not always repeated.

In the case of “3-((5-(4-Aminophenyl)-1,3,4-oxadiazol-2-yl)methyl)thiazolidine-2,4-dioneone [Compound 5c]”, the IC50 is 22.6 µM and 34.1 µM in data set [1]; 27.25 ± 0.23 µM in data set [2].
“3-((5-(4-Bromophenyl)-1,3,4-oxadiazol-2-yl)methyl)thiazolidine-2,4-dione [Compound 5b]”: the IC50 in data set [1] was 34.1 µM and 22.6 µM; in data set [2], 22.25 ± 0.22 µM. Also, the “significance of antihyperglycemic activity” value (“significance” for short) in data set [3] is “significant”. For the same molecule, the “reduction in glucose levels, female flies” value (“reduction … female flies” for short) in data set [3] (whole-body homogenate) is on record as 7.03%. Also, the “percent reduction in glucose levels, male flies” value (shortened to “percent reduction”) in data set [3] (whole-body homogenate) was 28.4%.
Turning to `C[C@H]1O[C@H](O[C@H]2[C@H](O)[C@@H](O)[C@@H](O[C@H]3[C@H](O)[C@@H](O)C(O)O[C@@H]3CO)O[C@@H]2CO)[C@H](O)[C@@H](O)[C@@H]1N[C@H]1C=C(CO)[C@@H](O)[C@H](O)[C@H]1O` (stereo partly shown) [Acarbose, reference compound], the “reduction in glucose level” value in data set [3] (HSD along with acarbose, whole-body homogenate, sex not stated) is “about 62%”.
For the molecule `O=C1CSC(=O)N1Cc1nnc(-c2ccc(Cl)cc2Cl)o1` [Compound 5a, 3-((5-(2,4-Dichlorophenyl)-1,3,4-oxadiazol-2-yl)methyl)thiazolidine-2,4-dione], the melting point is 210 to 212 °C. This molecule showed an IC50 in data set [1] of 18.6 ± 0.22 µM. The same molecule had a half-inhibitory concentration (IC50) in data set [2] of 17.6 ± 0.19 µM. Further, the “significance” value in data set [3] is “insignificant”. In data set [3] (whole-body homogenate), the “reduction … female flies” value is recorded as 12.1% and the “percent reduction” value stood at 27.7%.
In turn, `O=C1CSC(=O)N1Cc1nnc(-c2ccc(O)cc2)o1` [Compound 5d, 3-((5-(4-Hydroxyphenyl)-1,3,4-oxadiazol-2-yl)methyl)thiazolidine-2,4-dione] came in with a melting point of 192 to 194 °C. The IC50 in data set [1] amounted to 55.4 ± 0.66 µM. The IC50 in data set [2] was determined as 45.3 ± 0.79 µM. In data set [4], the “percentage cell toxicity (inhibition of cellular viability)” value is 87%.
Molecule `O=C1CSC(=O)N1Cc1nnc(-c2ccccc2)o1` [Compound 5e, 3-((5-Phenyl-1,3,4-oxadiazol-2-yl)methyl)thiazolidine-2,4-dione] had a melting point of 215 to 217 °C. In data set [1], the IC50 amounted to 32.4 ± 0.46 µM. The IC50 in data set [2] was found to be 33.5 ± 0.45 µM.
Taken in the same sequence, the figures for `COc1ccc(-c2nnc(CN3C(=O)CSC3=O)o2)cc1` [Compound 5f, 3-((5-(4-Methoxyphenyl)-1,3,4-oxadiazol-2-yl)methyl)thiazolidine-2,4-dione] were 178 to 180 °C, 39.2 ± 0.52 µM and 51.3 ± 0.83 µM.
Regarding `O=C1CSC(=O)N1Cc1nnc(-c2ccc(Cl)cc2)o1` [Compound 5g, 3-((5-(4-Chlorophenyl)-1,3,4-oxadiazol-2-yl)methyl)thiazolidine-2,4-dione], the melting point lay in the range of 172 to 174 °C. In addition, the IC50 in data set [1] is 28.9 ± 0.36 µM. Inhibition in data set [2] was half-maximal at 27.25 ± 0.24 µM (IC50).
Taken in the same sequence, the figures for `O=C1CSC(=O)N1Cc1nnc(-c2ccc([N+](=O)[O-])cc2Cl)o1` [Compound 5h, 3-((5-(2-Chloro-4-nitrophenyl)-1,3,4-oxadiazol-2-yl)methyl)thiazolidine-2,4-dione] were 161 to 163 °C, 23.2 ± 0.31 µM and 28.2 ± 0.31 µM.
Taken in the same sequence, the figures for `O=C1CSC(=O)N1Cc1nnc(-c2ccc([N+](=O)[O-])cc2)o1` [Compound 5i, 3-((5-(4-Nitrophenyl)-1,3,4-oxadiazol-2-yl)methyl)thiazolidine-2,4-dione] were 153 to 155 °C, 21.1 ± 0.23 µM and 25.2 ± 0.28 µM.
`O=C1CSC(=O)N1Cc1nnc(-c2ccc(O)cc2O)o1` [Compound 5j, 3-((5-(2,4-Dihydroxyphenyl)-1,3,4-oxadiazol-2-yl)methyl)thiazolidine-2,4-dione] returned a melting point of 204 to 206 °C. Moreover, the IC50 in data set [1] is 18.4 ± 0.21 µM. This molecule came in with an IC50 in data set [2] of 17.2 ± 0.22 µM. Besides, in data set [3], the “significance” value is recorded as “significant”. Moreover, in data set [3] (whole-body homogenate), the “reduction … female flies” value is recorded as 37% and the “percent reduction” value is 29.05%. Also, the “percentage cell toxicity (inhibition of cellular viability)” value in data set [4] is given as 83%.

Values taken from publication PMC9828437, “Novel hybrids of thiazolidinedione-1,3,4-oxadiazole derivatives: synthesis, molecular docking, MD simulations, ADMET study, in vitro, and in vivo anti-diabetic assessment” (RSC Advances, 2023).
